Literature values as cited in patent US20190328656A1, “TARGETED DELIVERY OF PROGESTINS AND ESTROGENS VIA VAGINAL RING DEVICES FOR FERTILITY CONTROL AND HRT PRODUCTS” (Evestra, Inc., priority 2018, published 2019).

Experiments:
[1] = elimination from the blood stream
[2] = compared to estriol

half-life [1]	Compound	estrogenic activity [2]
around 1 hour	C[C@]12CC[C@@H]3c4ccc(O)cc4CC[C@H]3[C@@H]1CC[C@@H]2O [17-beta estradiol]	–
–	C[C@]12CC[C@@H]3c4ccc(O)cc4CC[C@H]3[C@@H]1[C@@H](O)[C@@H](O)[C@@H]2O [Estetrol]	very weak estrogenic activity
